Reference: patent US20240254199A1, “MODIFIED MAMMALIAN CELLS” (Genentech, Inc., priority 2021, published 2024)

Assays:
Format in all cases: cell-based, Chinese hamster
empty host CHO-K1 cells = assay: Seed train growth of empty host CHO-K1 cells with PDGFRa inhibitor and/or insulin
Description: 1.5 million cells were lysed in 1× NP40 buffer (10 mM Tris, pH 8.0, 0.5% NP40, 150 mM NaCl, 10 mM DTT and 5 mM MgCl2) containing protease inhibitor cocktails (Roche EDTA free mini-tablets cocktail) for 20 min on ice. Lysates were subjected to sodium dodecyl sulfate-polyacrylamide gel electrophoresis (SDS-PAGE) (4-12% Tris glycine) and transferred to nitrocellulose membrane. After blocking with 5% milk in tris-buffered saline (TBS)-0.1% Tween buffer, the membranes were blotted with respective antibodies. Blots were visualized using HRP-conjugated anti-rabbit anti-body and SuperSignal West Dura Extended Duration Substrate. The following inhibitors were used: ATF6i (10 μM Ceapin-A7 (Gallagher, et al., 2016)), PERKi (10 μM Compound 39 (Axten, et al., 2012)), IRE1i6 (10 μM 4u8c (Cross, et al., 2012)), IRE1i9 (10 μM in-house/Genentech), PDGFRi (5-20 μM Abcam, AG-1296). The following antibodies were used: anti-PDGFRa (Cell Signaling Technology (CST), D1E1E), rabbit anti-BiP (C50B12, Cell Signaling Technology, 3177), rabbit anti-PERK (CST, C33E10), mouse anti-o-actin-HRP (AC-15) (Abcam, ab49900), rabbit anti-phospho-Akt (Ser473) (CST, D9E), rabbit anti-Akt (CST, 5G3), rabbit cleaved caspase3 (CST, asp175), goat anti-human IgG-HRP (MP Biomedicals, 0855252), rabbit IRE1a (CST, 14C10), mouse anti-phospho-IRE1, mouse anti-XBP1, rabbit anti-Bax (Abcam, ab32503), rabbit anti-Bak (CST, D4E4), donkey anti-rabbit HRP (Jackson ImmunoResearch Laboratories, Inc., 711-035-152), rabbit anti-sod2 (CST, D3×8F)
(§1) It was previously shown that UPR-induced poor growth profiles correlated with a decrease in PDGFRa levels (FIGS. 19A and 19B) (Tung, et al., 2018). PDGFRa and insulin signaling pathways have overlapping downstream targets (FIG. 21A), however insulin signaling negatively regulates PDGFRa signaling (Cirri, et al., 2005). […]

[1] = system: mAb2-expressing CHO-K1 cells; assay: Fed-batch production of mAb2-expressing CHO cell line with PDGFRa inhibitor and/or insulin; conditions: added on Day 3 of fed-batch production
Description: Fed-batch production cultures were performed as disclosed here and below in Example 2, with proprietary chemically defined medium using different vessels (e.g., tube-spin and AMBR15) along with bolus feeds on Days 3, 7 and 10 as previously mentioned (Hsu, Aulakh, Traul, & Yuk, 2012). Anti-cell aggregation agent was used in all cultures during production assay to prevent cell aggregation due to the release of DNA from dying cells. Cells were seeded at low (1-2×10^6 cells/mL) or high (10×10^6 cells/mL) seeding densities using lean or rich production media. Cultures were temperature shifted from 37° C. to 35° C. on Day 3. Titers were determined using Protein-A affinity chromatography with UV detection. Percent viability and viable cell count were determined using a Vi-Cell XR instrument (Beckman Coulter Item #383721).
as §1

PDGFRa = PDGFRa protein (western blot) and mRNA (qPCR) levels upon chemical UPR induction; conditions: seed train, mAb1-expressing CHO DG44 and CHO-K1, optimal pH
Description: 1.5 million cells were lysed in 1× NP40 buffer (10 mM Tris, pH 8.0, 0.5% NP40, 150 mM NaCl, 10 mM DTT and 5 mM MgCl2) containing protease inhibitor cocktails (Roche EDTA free mini-tablets cocktail) for 20 min on ice. Lysates were subjected to sodium dodecyl sulfate-polyacrylamide gel electrophoresis (SDS-PAGE) (4-12% Tris glycine) and transferred to nitrocellulose membrane. After blocking with 5% milk in tris-buffered saline (TBS)-0.1% Tween buffer, the membranes were blotted with respective antibodies. Blots were visualized using HRP-conjugated anti-rabbit anti-body and SuperSignal West Dura Extended Duration Substrate. The following inhibitors were used: ATF6i (10 μM Ceapin-A7 (Gallagher, et al., 2016)), PERKi (10 μM Compound 39 (Axten, et al., 2012)), IRE1i6 (10 μM 4u8c (Cross, et al., 2012)), IRE1i9 (10 μM in-house/Genentech), PDGFRi (5-20 μM Abcam, AG-1296). […]
An interesting phenomenon was previously described where activation of UPR in seed train culture, triggered by lower pH conditions in a particular CHO cell line, negatively affected culture growth in production media at target pH (Tung, et al., 2018). When exposed to low pH conditions, high intracellular BiP levels were detected in this cell line that correlated to low growth profiles during production and poor bioprocess outcomes (Tung, et al., 2018). […]

Row | Compound | reduction of cell growth (empty host CHO-K1 cells; 20 μM, empty host CHO-K1 cells, seed train media, 4 days) | cell growth and viability in fed-batch production [1] | PDGFRa levels (protein and mRNA) (PDGFRa) | Akt phosphorylation (empty host CHO-K1 cells; insulin added to cultures with PDGFRa inhibitor, western blot) | cellular growth of cultures treated with the PDGFRa inhibitor (empty host CHO-K1 cells; insulin added to seed train cultures with PDGFRa inhibitor)
1 | COc1cc2ncc(-c3ccccc3)nc2cc1OC [PDGFRa inhibitor, AG-1296] | approximately 50% | significantly decreased cell growth, without affecting cell viability |  |  | 
2 | Tunicamycin |  |  | reduced at both the protein and mRNA levels |  | 
3 | insulin |  | partially rescued the observed cell growth inhibition |  | increased Akt phosphorylation | partially rescued cellular growth
